Results taken from PMC11505918, “The Epiphyte Bacillus sp. G2112 Produces a Large Diversity of Nobilamide Peptides That Promote Biofilm Formation in Pseudomonads and Mycobacterium aurum” (Biomolecules, 2024).
Where a SMILES comes first, the peptide text is derived from it. Bridges are numbered along the chain shown (N, C = ends). [ ]: non-standard residue; d: D form. The star is where a group is joined. d(aThr) = C[C@@H](O)[C@@H](N)C(=O)O; Isobutyryl = CC(C)C(=O)*; Dhb = C/C=C(\N)C(=O)O; Propionyl = CCC(=O)*

Assays:
[1] = test system: Lysinibacillus sphaericus DSM1867; details: for inhibition zone against L. sphaericus: DSM1867, 0.1 mg/mL; for antibiotic activity against L. sphaericus (in words): agar diffusion, 5 µg/hole (Figure S97b)
M. aurum = assay: Crystal violet biofilm formation assay, M. aurum; details: crystal violet staining, 0.2 µg/µL, KB medium, 28 °C, 2 d
Pseudomonas sp. G124 = assay: Crystal violet biofilm formation assay, Pseudomonas sp. G124; details: crystal violet staining, 0.2 µg/µL, KB medium, 28 °C, 2 d
P. syringae pv. glycinea = assay: Crystal violet biofilm formation assay, P. syringae pv. glycinea; details: crystal violet staining, 0.2 µg/µL, KB medium, 28 °C, 2 d
[2] = test system: lung, gastric, and colorectal cancers; details: cited from earlier work
[3] = test system: matrix metalloproteinase-2 and -9; details: lung, gastric, and colorectal cancers; cited from earlier work

| Compound | inhibition zone against L. sphaericus [1] [mm] | antibiotic activity against L. sphaericus (in words) [1] | effect on biofilm formation in M. aurum (in words) (M. aurum) | effect on biofilm formation in Pseudomonas sp. G124 (in words) (Pseudomonas sp. G124) | effect on biofilm formation in P. syringae pv. glycinea (in words) (P. syringae pv. glycinea) | cancer cell motility (in words) [2] | expression of the matrix metalloproteinase-2 and -9 (in words) [3] |
| --- | --- | --- | --- | --- | --- | --- | --- |
| C/C=C1\NC(=O)[C@H](C)NC(=O)[C@H](C(C)C)NC(=O)[C@H](NC(=O)[C@H](Cc2ccccc2)NC(=O)[C@@H](CC(C)C)NC(=O)[C@@H](Cc2ccccc2)NC(=O)CC)[C@@H](C)OC1=O [A-3302-A (2), A-3302-A] (Propionyl-[dF][dL]F[d(aThr)]VA[Dhb]; ester 4-C) | 18.3 | powerful antibiotic activity |  |  |  |  |  |
| C/C=C1\NC(=O)[C@H](C)NC(=O)[C@H](C(C)C)NC(=O)[C@H](NC(=O)[C@H](Cc2ccccc2)NC(=O)[C@@H](CC(C)C)NC(=O)[C@@H](Cc2ccccc2)NC(=O)C(C)C)[C@@H](C)OC1=O [nobilamide J (9), nobilamide J] (Isobutyryl-[dF][dL]F[d(aThr)]VA[Dhb]; ester 4-C) | 21.3 | powerful antibiotic activity |  |  |  |  |  |
| nobilamide A [nobilamide A (4)] |  | did not exhibit antimicrobial activity | strongly induced | strongly induced | strongly induced |  |  |
| nobilamide I [nobilamide I (8)] |  |  | less clear effect | less clear effect | worked best | suppressed | suppressed |
| nobilamide S [nobilamide S (18)] |  |  |  | induced biofilm formation | did not promote biofilm formation |  |  |
| nobilamide W [nobilamide W (22)] |  |  | strongly induced | strongly induced | strongly induced |  |  |
